Test results from patent US20230128402A1 (The Trustees of Princeton University, priority 2020, published 2023).

Experiments:
mALDH1a3 = biological target: T1, mALDH1a3 (Mus musculus, UniProt Q9JHW9); test: Aldh1a3 enzyme inhibition assay, recombinant mALDH1a3; type: biochemical; details: resorufin fluorescence, 20° C.
T1 construct: made in house; host or cells: E. coli BL21-DE3, pET-Aldh1a3
T1 sequence (Q9JHW9 1-512): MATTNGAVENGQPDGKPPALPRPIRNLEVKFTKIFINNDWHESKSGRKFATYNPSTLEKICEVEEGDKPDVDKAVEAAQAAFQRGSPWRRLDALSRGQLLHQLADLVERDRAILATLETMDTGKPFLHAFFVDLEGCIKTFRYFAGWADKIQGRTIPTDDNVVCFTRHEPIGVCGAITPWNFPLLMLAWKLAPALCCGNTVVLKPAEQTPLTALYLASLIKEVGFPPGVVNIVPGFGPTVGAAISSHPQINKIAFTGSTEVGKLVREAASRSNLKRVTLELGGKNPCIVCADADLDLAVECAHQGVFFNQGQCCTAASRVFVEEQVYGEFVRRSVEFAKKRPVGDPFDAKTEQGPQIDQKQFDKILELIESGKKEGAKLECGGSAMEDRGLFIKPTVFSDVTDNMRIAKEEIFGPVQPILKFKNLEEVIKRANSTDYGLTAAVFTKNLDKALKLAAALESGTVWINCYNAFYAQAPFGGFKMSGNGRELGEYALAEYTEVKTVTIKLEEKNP
Excerpt: (§1) Recombinant enzyme and inhibitor added immediately before assay. Reaction rate measured by resorufin fluorescence.

ALDH1a3 [1] = biological target: T2, ALDH1a3 (Homo sapiens, UniProt P47895); test: Aldh1a3 enzyme inhibition assay, recombinant hALDH1a3; type: biochemical; design: made in house; host or cells: E. coli BL21-DE3, pET-Aldh1a3; details: resorufin fluorescence, 20° C.
T2 sequence (P47895 1-512): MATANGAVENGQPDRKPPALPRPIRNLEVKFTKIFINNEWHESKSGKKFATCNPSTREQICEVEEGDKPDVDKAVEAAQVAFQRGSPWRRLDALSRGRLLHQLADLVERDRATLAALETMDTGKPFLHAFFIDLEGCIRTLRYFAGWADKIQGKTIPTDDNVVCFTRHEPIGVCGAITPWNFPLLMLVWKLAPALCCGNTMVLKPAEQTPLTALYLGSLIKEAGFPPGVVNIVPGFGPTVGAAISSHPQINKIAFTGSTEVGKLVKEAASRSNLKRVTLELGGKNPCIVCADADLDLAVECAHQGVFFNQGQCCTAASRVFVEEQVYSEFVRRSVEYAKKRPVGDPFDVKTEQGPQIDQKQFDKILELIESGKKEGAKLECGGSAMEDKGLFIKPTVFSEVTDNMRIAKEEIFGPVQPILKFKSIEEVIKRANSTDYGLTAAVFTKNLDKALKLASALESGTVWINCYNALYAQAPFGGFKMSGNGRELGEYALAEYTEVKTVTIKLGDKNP
Excerpt: as §1

ALDH1a3 [2] = biological target: T2, ALDH1a3; test: ALDEFLUOR assay in SUM159-M1a-Aldh1a3 cells; type: cell-based; design: lentiviral vectors containing either the vector backbone or full-length human Aldh1a3; expressed in transfected cells; host or cells: SUM159-M1a human breast cancer cells, lentiviral pLex vector; details: for Inhi-bitory Activity at 100 nM (%) / Percent of Cells Positive for ALDEFLUOR ™ at 100 nM: SUM159-M1a-Aldh1a3 cells, compound at 100 nM
Method: Cells were counted, centrifuged and resuspended at 1,000,000 cells/mL in ALDEFLUOR™ buffer (Stemcell Technologies). ALDEFLUOR™ substrate (Stemcell Technologies, 1:200) and test compound or 1 mM DEAB were added to cell suspension and incubated at 37° C. for 45 minutes with vortexing every 15 minutes. Cells were centrifuged and resuspended in ALDEFLUOR™ buffer with DAPI at 5 μg/mL. Samples were analyzed with the BD LSR2 flow cytometry platform. Gating was performed using DEAB as a negative control.
Gating for background fluorescence was performed using 1 millimolar DEAB as a negative control.
The [inh-min]threshold was set at the lower bound of two standard deviations of control samples, while the IC50 threshold was set at 50% of the average of control samples.
An ALDEFLUOR™ assay was also used to assess the relative activity of several compounds described herein against SUM159-M1a-Aldh1a3 cells.

| IC50 (mALDH1a3) [µM] | IC50 (ALDH1a3 [1]) [µM] | Inhi-bitory Activity at 100 nM (%) (ALDH1a3 [2]) | Percent of Cells Positive for ALDEFLUOR ™ at 100 nM (ALDH1a3 [2]) [%] | relative potency, ALDEFLUOR activity (ALDH1a3 [2]; 10 nM, FIG. 6C) | Compound | inhibition of ALDH1a3 activity (percentage of ALDEFLUOR-positive cells) (ALDH1a3 [2]; 100 nM, FIG. 6A) |
| --- | --- | --- | --- | --- | --- | --- |
| > 5 | > 5 | 8 | 70 |  | O=C1CCc2cc(NC(=O)c3ccncc3)c(F)cc2N1 [Compound 2] |  |
| 1 to 5 | 1 to 5 | 55 | 34 |  | CCc1cnccc1CNc1cc2c(cc1F)NC(=O)CC2 [Compound 3] |  |
| 0.1 to 0.25 | < 0.1 |  |  | nearly twice as potent as MBE 1.5 | CC(C)Cc1cnccc1C(=O)Nc1cc2c(cc1F)NC(=O)CC2 [Compound 7] |  |
| 1 to 5 | 1 to 5 | 45 | 42 |  | Cc1ccc(C)c(CNc2ccc3c(c2)CCC(=O)N3)c1 [Compound 10] |  |
| > 5 | > 5 | 3.3 | 74 |  | Cc1ccc(C(=O)Nc2ccc3c(c2)CCC(=O)N3)c(C)c1 [Compound 12] |  |
| > 5 | > 5 |  |  |  | CC1(C)Cc2cc(Nc3ccc4ccncc4c3)ccc2NC1=O [Compound 104, 6-(7-isoquinolylamino)-3,3-dimethyl-1,4-dihydroquinolin-2-one] |  |
| > 5 | > 5 |  |  |  | CC1(C)Cc2cc(NN3CCC(c4ccccc4)C3=O)ccc2NC1=O (centres unmarked) [Compound 106] |  |
| 0.25 to 1 | 1 to 5 |  |  |  | CC1(C)Cc2cc(Nc3ncc4ccccc4n3)c(F)cc2NC1=O [Compound 108, 7-fluoro-3,3-dimethyl-6-(quinazolin-2-ylamino)-1,4-dihydroquinolin-2-one] |  |
| 0.25 to 1 | 0.25 to 1 |  |  |  | CC1(C)Cc2cc(Nc3ccc4c(Cl)cccc4n3)ccc2NC1=O [Compound 112, 6-[(5-chloro-2-quinolyl)amino]-3,3-dimethyl-1,4-dihydroquinolin-2-one] |  |
| > 5 | > 5 |  |  |  | CC1(C)Cc2cc(Nc3ccc4c(c3)NC(=O)CC4)ccc2NC1=O [Compound 114, 3,3-dimethyl-6-[(2-oxo-3,4-dihydro-1H-quinolin-7-yl)amino]-1,4-dihydroquinolin-2-one] |  |
| > 5 | > 5 |  |  |  | CC1(C)Cc2cc(Nc3c[nH]c4ccccc4c3=O)ccc2NC1=O [Compound 115, 3,3-dimethyl-6-[(4-oxo-1H-quinolin-3-yl)amino]-1,4-dihydroquinolin-2-one] |  |
| > 5 | > 5 |  |  |  | CC1(C)Cc2cc(Nc3cccc(Cl)n3)ccc2NC1=O [Compound 122, 6-[(6-chloro-2-pyridyl)amino]-3,3-dimethyl-1,4-dihydroquinolin-2-one] |  |
| > 5 | 0.25 to 1 |  |  |  | CC1(C)Cc2cc(Nc3cc(Cl)c(Cl)cn3)ccc2NC1=O [Compound 125, 6-[(4,5-dichloro-2-pyridyl)amino]-3,3-dimethyl-1,4-dihydroquinolin-2-one] |  |
| < 0.1 | 0.25 to 1 |  |  |  | O=C1CCc2cc(Nc3cnc4ccccc4n3)ncc2N1 [Compound 126, 6-(quinoxalin-2-ylamino)-3,4-dihydro-1H-1,7-naphthyridin-2-one] |  |
| > 5 | 1 to 5 |  |  |  | CCc1cnccc1C(=O)Nc1ccc2c(c1)C(F)(F)C(=O)N2 [Compound 136] |  |

Further lines, the compound ahead of its results:

| Compound | IC50 (mALDH1a3) [µM] | IC50 (ALDH1a3 [1]) [µM] | Inhi-bitory Activity at 100 nM (%) (ALDH1a3 [2]) | Percent of Cells Positive for ALDEFLUOR ™ at 100 nM (ALDH1a3 [2]) [%] | relative potency, ALDEFLUOR activity (ALDH1a3 [2]; 10 nM, FIG. 6C) | inhibition of ALDH1a3 activity (percentage of ALDEFLUOR-positive cells) (ALDH1a3 [2]; 100 nM, FIG. 6A) |
| --- | --- | --- | --- | --- | --- | --- |
| 3-ethyl-N-(2-oxo-3,4-dihydro-1H-quinolin-6-yl)pyridine-4-carboxamide [Compound 9] | 0.25 to 1 | < 0.1 | 83 | 13 |  |  |
| CCc1cnccc1C(=O)Nc1ccc2c(c1)CCC(=O)N2 [Compound 9, 3-ethyl-N-(2-oxo-3,4-dihydro-1H-quinolin-6-yl)pyridine-4-carboxamide] |  |  |  |  |  | high-affinity compounds for the inhibition of ALDH1a3 activity |
| Cc1ccc(C(=O)Nc2ccc3c(c2)CCC(=O)N3)cc1C [Compound 11] | > 5 | > 5 | 0.60 | 76 |  |  |
| Cc1ccccc1C(=O)Nc1ccc2c(c1)CCC(=O)N2 [Compound 13] | 1 to 5 | > 5 | 42 | 45 |  |  |
| CC1(C)Cc2cc(NC3COc4ccccc4C3)ccc2NC1=O (centres unmarked) [Compound 105, 6-(chroman-3-ylamino)-3,3-dimethyl-1,4-dihydroquinolin-2-one] | > 5 | > 5 |  |  |  |  |
| CC1(C)Cc2cc(Nc3cnc4ccccc4n3)c(F)cc2NC1=O [Compound 109, 7-fluoro-3,3-dimethyl-6-(quinoxalin-2-ylamino)-1,4-dihydroquinolin-2-one] | < 0.1 | 0.1 to 0.25 |  |  |  |  |
| Cc1cccc2ccc(Nc3ccc4c(c3)CC(C)(C)C(=O)N4)nc12 [Compound 111] | > 5 | > 5 |  |  |  |  |
| Cn1ccc2nc(Nc3ccc4c(c3)CC(C)(C)C(=O)N4)ccc21 [Compound 113, 3,3-dimethyl-6-[(1-methylpyrrolo[3,2-b]pyridin-5-yl)amino]-1,4-dihydroquinolin-2-one] | > 5 | > 5 |  |  |  |  |
| CC1(C)Cc2cc(Nc3nc(=O)c4ccccc4[nH]3)ccc2NC1=O [Compound 116, 2-[(3,3-dimethyl-2-oxo-1,4-dihydroquinolin-6-yl)amino]-1H-quinazolin-4-one] | 1 to 5 | 0.25 to 1 |  |  |  |  |
| CC1(C)Cc2cc(Nc3cnc4ccc(C(=O)O)cc4n3)ccc2NC1=O [Compound 118, 3-[(3,3-dimethyl-2-oxo-1,4-dihydroquinolin-6-yl)amino]quinoxaline-6-carboxylic acid] | > 5 | > 5 |  |  |  |  |
| O=C1CCc2cc(Oc3ncc4ccccc4n3)ccc2N1 [Compound 119, 6-quinazolin-2-yloxy-3,4-dihydro-1H-quinolin-2-one] | > 5 | > 5 |  |  |  |  |
| COC(=O)c1ccc2ncc(Nc3ccc4c(c3)CC(C)(C)C(=O)N4)nc2c1 [Compound 120, methyl 3-[(3,3-dimethyl-2-oxo-1,4-dihydroquinolin-6-yl)amino]quinoxaline-6-carboxylate] | > 5 | > 5 |  |  |  |  |
| CC1(C)Cc2cc(Nc3ccc(Cl)cn3)ccc2NC1=O [Compound 123, 6-[(5-chloro-2-pyridyl)amino]-3,3-dimethyl-1,4-dihydroquinolin-2-one] | > 5 | > 5 |  |  |  |  |
| CC1(C)Cc2cc(Nc3ccc4c(n3)CCCC4=O)ccc2NC1=O [Compound 127, 3,3-dimethyl-6-[(5-oxo-7,8-dihydro-6H-quinolin-2-yl)amino]-1,4-dihydroquinolin-2-one] | > 5 | 1 to 5 |  |  |  |  |
| Cc1nc(Nc2ccc3c(c2)CC(C)(C)C(=O)N3)nc2ccccc12 [Compound 132, 3,3-dimethyl-6-[(4-methylquinazolin-2-yl)amino]-1,4-dihydroquinolin-2-one] | 0.25 to 1 | 0.25 to 1 |  |  |  |  |
| Cc1cc2ccccc2nc1Nc1ccc2c(c1)CC(C)(C)C(=O)N2 [Compound 134] | 0.25 to 1 | 0.25 to 1 |  |  |  |  |
| CC1(C)Cc2cc(Nc3c[nH]c4c(c3=O)CCCC4)ccc2NC1=O [Compound 135, 3,3-dimethyl-6-[(4-oxo-5,6,7,8-tetrahydro-1H-quinolin-3-yl)amino]-1,4-dihydroquinolin-2-one] | > 5 | > 5 |  |  |  |  |
| CCc1cnccc1C(=O)Nc1ccc2c(c1)C(C)(C)C(=O)N2 [Compound 137] | > 5 | > 5 |  |  |  |  |
